In PubChem BioAssay AID248 (DTP/NCI, 2004):
Toxic doses and inconclusive results are not listed. No stated cut-off is given here; in the data, active means T/C of 150% or more; inactive means T/C below 125%.

Tested on: L1210 leukemia ip in BDF1 mice, survival T/C
Test: NCI In Vivo Anticancer Drug Screen. Data for tumor model L1210 Leukemia (intraperitoneal) in B6D2F1 (BDF1) mice
Conditions: endpoint: mean survival time, higher = longer survival
Summary of the method: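 Transplantable tumor model; survival measured in treated vs vehicle control mice. Value = treated/control.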

[1] = dose: 100.0 mg/kg/injection, schedule: Q01DX001 (ip), vehicle: saline
[2] = dose: 200.0 mg/kg/injection, schedule: Q01DX001 (ip), vehicle: saline
[3] = dose: 400.0 mg/kg/injection, schedule: Q01DX001 (ip), vehicle: saline
[4] = dose: 100.0 mg/kg/injection, schedule: Q01DX009 (ip), vehicle: Klucel (hydroxypropylcellulose) (HPC)
[5] = dose: 100.0 mg/kg/injection, schedule: Q04DX003 (ip), vehicle: Klucel (hydroxypropylcellulose) (HPC)
[6] = dose: 200.0 mg/kg/injection, schedule: Q01DX009 (ip), vehicle: Klucel (hydroxypropylcellulose) (HPC)
[7] = dose: 200.0 mg/kg/injection, schedule: Q04DX003 (ip), vehicle: Klucel (hydroxypropylcellulose) (HPC)
[8] = dose: 400.0 mg/kg/injection, schedule: Q01DX009 (ip), vehicle: Klucel (hydroxypropylcellulose) (HPC)
[9] = dose: 400.0 mg/kg/injection, schedule: Q04DX003 (ip), vehicle: Klucel (hydroxypropylcellulose) (HPC)
[10] = dose: 100.0 mg/kg/injection, schedule: Q01DX001 (ip), vehicle: carboxymethylcellulose (CMC)
[11] = dose: 200.0 mg/kg/injection, schedule: Q01DX001 (ip), vehicle: carboxymethylcellulose (CMC)
[12] = dose: 100.0 mg/kg/injection, schedule: Q01DX009 (ip), vehicle: saline
[13] = dose: 100.0 mg/kg/injection, schedule: Q04DX003 (ip), vehicle: saline
[14] = dose: 200.0 mg/kg/injection, schedule: Q01DX009 (ip), vehicle: saline
[15] = dose: 200.0 mg/kg/injection, schedule: Q04DX003 (ip), vehicle: saline
[16] = dose: 400.0 mg/kg/injection, schedule: Q04DX003 (ip), vehicle: saline
[17] = dose: 100.0 mg/kg/injection, schedule: Q04DX002 (ip), vehicle: Klucel (hydroxypropylcellulose) (HPC)
[18] = dose: 200.0 mg/kg/injection, schedule: Q04DX002 (ip), vehicle: Klucel (hydroxypropylcellulose) (HPC)

Measured: T/C

CC(=O)OCC(=O)[C@@]1(O)CC[C@H]2[C@@H]3CCC4=CC(=O)C=C[C@]4(C)[C@H]3[C@@H](O)C[C@@]21C
inactive: dose: 50.0 mg/kg/injection, schedule: Q04DX003 (sc), vehicle: steriod suspending solution 97 % of control | dose: 100.0 mg/kg/injection, schedule: Q04DX003 (sc), vehicle: steriod suspending solution 94 % of control | dose: 200.0 mg/kg/injection, schedule: Q04DX003 (sc), vehicle: steriod suspending solution 96 % of control | dose: 400.0 mg/kg/injection, schedule: Q04DX003 (sc), vehicle: steriod suspending solution 106 % of control

CC(C)=CCCC/C=N/NC(N)=O
inactive: dose: 75.0 mg/kg/injection, schedule: Q01DX001 (ip), vehicle: acetone 102 % of control | dose: 150.0 mg/kg/injection, schedule: Q01DX001 (ip), vehicle: acetone 97 % of control

Clc1ccnc(NC2CCCCC2)c1
inactive: [1] 92 % of control | [2] 98 % of control | [3] 100 % of control

Nc1ccc(N(S(=O)(=O)c2ccccc2)S(=O)(=O)c2ccccc2)nc1
inactive: [4] 95 % of control | [5] 98 % of control | [6] 100 % of control | [7] 97 % of control | [8] 106 % of control | [9] 103 % of control

CC(=O)/C(C)=N/O
inactive: [1] 98 % of control | [2] 98 % of control | [3] 96 % of control

O=C1CCCCCC1c1ccccc1 (centres undefined)
inactive: dose: 100.0 mg/kg/injection, schedule: Q04DX003 (ip), vehicle: saline with Tween-80 98 % of control | dose: 200.0 mg/kg/injection, schedule: Q04DX003 (ip), vehicle: saline with Tween-80 96 % of control | dose: 400.0 mg/kg/injection, schedule: Q04DX003 (ip), vehicle: saline with Tween-80 106 % of control

Cn1/c(=N/N)sc2ccccc21.Cn1/c(=N/N)sc2ccccc21.Cn1/c(=N/N)sc2ccccc21.Cn1/c(=N\N)sc2ccccc21.[Cl][Rh][Cl]
inactive: dose: 3.13 mg/kg/injection, schedule: Q04DX003 (ip), vehicle: distilled water + Tween-80 100 % of control | dose: 6.25 mg/kg/injection, schedule: Q04DX003 (ip), vehicle: distilled water + Tween-80 98 % of control | dose: 12.5 mg/kg/injection, schedule: Q04DX003 (ip), vehicle: distilled water + Tween-80 101 % of control | dose: 25.0 mg/kg/injection, schedule: Q04DX003 (ip), vehicle: distilled water + Tween-80 101 % of control | dose: 50.0 mg/kg/injection, schedule: Q04DX003 (ip), vehicle: distilled water + Tween-80 93 % of control | dose: 100.0 mg/kg/injection, schedule: Q04DX003 (ip), vehicle: distilled water + Tween-80 90 % of control | dose: 200.0 mg/kg/injection, schedule: Q04DX003 (ip), vehicle: distilled water + Tween-80 95 % of control

NC1=NC(CCc2ccccc2)N(c2ccc(Cl)cc2)C(N)=N1 (centres undefined)
inactive: dose: 14.0 mg/kg/injection, schedule: Q01DX009 (ip), vehicle: steriod suspending solution 98 % of control | dose: 24.0 mg/kg/injection, schedule: Q01DX009 (ip), vehicle: steriod suspending solution 97 % of control | dose: 39.0 mg/kg/injection, schedule: Q01DX009 (ip), vehicle: steriod suspending solution 100 % of control | dose: 65.0 mg/kg/injection, schedule: Q01DX009 (ip), vehicle: steriod suspending solution 100 % of control

CC(c1ccccc1)C(C(=O)O)C(=O)O (centres undefined)
inactive: dose: 50.0 mg/kg/injection, schedule: Q01DX001 (ip), vehicle: carboxymethylcellulose (CMC) 100 % of control | [10] 96 % of control | [11] 96 % of control | dose: 400.0 mg/kg/injection, schedule: Q01DX001 (ip), vehicle: carboxymethylcellulose (CMC) 97 % of control

OCc1nc2nc(Cl)c(Cl)nc2[nH]1
inactive: dose: 50.0 mg/kg/injection, schedule: Q01DX009 (ip), vehicle: saline 93 % of control | [12] 98 % of control | [13] 107 % of control | [14] 95 % of control | [15] 98 % of control | [16] 96 % of control

CCCCNc1nc(SC)nc2nc[nH]c12
inactive: [5] 95 % of control | [7] 96 % of control | [9] 91 % of control

O=C[N]([Hg][Cl])c1ccccc1
inactive: dose: 0.39 mg/kg/injection, schedule: Q01DX009 (ip), vehicle: saline with Tween-80 102 % of control | dose: 0.78 mg/kg/injection, schedule: Q01DX009 (ip), vehicle: saline with Tween-80 102 % of control | dose: 1.56 mg/kg/injection, schedule: Q01DX009 (ip), vehicle: saline with Tween-80 87 % of control | dose: 1.56 mg/kg/injection, schedule: Q01DX009 (ip), vehicle: saline 94 % of control

CC(=O)OCCC/C(=C\c1ccc(Br)cc1)[N+](=O)[O-]
inactive: [10] 97 % of control | [11] 97 % of control

O=c1[nH]c(Nc2ccccc2)c(-c2ccccc2)c(=O)[nH]1
inactive: dose: 47.5 mg/kg/injection, schedule: Q01DX001 (ip), vehicle: gum acacia 98 % of control | dose: 95.0 mg/kg/injection, schedule: Q01DX001 (ip), vehicle: gum acacia 88 % of control | dose: 190.0 mg/kg/injection, schedule: Q01DX001 (ip), vehicle: gum acacia 114 % of control

CC(=O)c1ccc(Cc2ccc(C(C)=O)cc2)cc1
inactive: [4] 98 % of control | [6] 98 % of control | [8] 106 % of control

CCCC1=NNC(=O)C1(Br)Br
inactive: dose: 10.0 mg/kg/injection, schedule: Q01DX001 (ip), vehicle: carboxymethylcellulose (CMC) 97 % of control | dose: 20.0 mg/kg/injection, schedule: Q01DX001 (ip), vehicle: carboxymethylcellulose (CMC) 91 % of control | dose: 40.0 mg/kg/injection, schedule: Q01DX001 (ip), vehicle: carboxymethylcellulose (CMC) 92 % of control | dose: 80.0 mg/kg/injection, schedule: Q01DX001 (ip), vehicle: carboxymethylcellulose (CMC) 97 % of control

Cc1cc[n+]([O-])cc1
inactive: [1] 100 % of control | [12] 98 % of control | [13] 94 % of control | [2] 98 % of control | [14] 101 % of control | [15] 102 % of control | [3] 98 % of control | dose: 400.0 mg/kg/injection, schedule: Q01DX009 (ip), vehicle: saline 98 % of control | [16] 98 % of control

N=c1ncn(C2OC(CO[P+](N)(O)O)C(O)C2O)c2nc[nH]c12 (centres undefined)
inactive: dose: 12.5 mg/kg/injection, schedule: Q01DX005 (ip), vehicle: water 110 % of control | dose: 25.0 mg/kg/injection, schedule: Q01DX005 (ip), vehicle: water 106 % of control

CC(C)/[N+]([O-])=C/C=C/c1ccccc1
inactive: [5] 96 % of control | [7] 97 % of control | [9] 100 % of control

O=C(/C=C\c1ccccc1)Nc1c(Cl)cc(Cl)cc1Cl
inactive: [17] 91 % of control | [18] 107 % of control | dose: 400.0 mg/kg/injection, schedule: Q04DX002 (ip), vehicle: Klucel (hydroxypropylcellulose) (HPC) 95 % of control

NC(CSS(=O)(=O)O)=NCCCC1CCCCC1
inactive: dose: 6.25 mg/kg/injection, schedule: Q04DX002 (ip), vehicle: saline with Tween-80 97 % of control | dose: 12.5 mg/kg/injection, schedule: Q04DX002 (ip), vehicle: saline with Tween-80 101 % of control

NC(=S)N=Nc1c(O)n(C2OC(CO)C(O)C(O)C2O)c2ccccc12 (centres undefined)
inactive: dose: 50.0 mg/kg/injection, schedule: Q01DX005 (ip), vehicle: saline 88 % of control | dose: 100.0 mg/kg/injection, schedule: Q01DX005 (ip), vehicle: saline 94 % of control

CC(=O)Cc1cc(C)nc(/N=C(\N)Nc2ccccc2)n1
inactive: [17] 93 % of control | [18] 104 % of control

CC(=O)C(C#N)C(C)=O.CC(=O)C(C#N)C(C)=O.[Mn]
inactive: [12] 107 % of control | [13] 105 % of control | [15] 102 % of control

Nc1ccnc(SCc2ccccc2)n1
inactive: dose: 100.0 mg/kg/injection, schedule: Q01DX001 (ip), vehicle: saline with Tween-80 90 % of control | dose: 200.0 mg/kg/injection, schedule: Q01DX001 (ip), vehicle: saline with Tween-80 93 % of control | dose: 400.0 mg/kg/injection, schedule: Q01DX001 (ip), vehicle: saline with Tween-80 93 % of control

O=c1cc(/C=N\Nc2ccc([N+](=O)[O-])cc2)[nH]c(=O)[nH]1
inactive: dose: 50.0 mg/kg/injection, schedule: Q01DX001 (ip), vehicle: saline 106 % of control | [1] 95 % of control | [2] 101 % of control | [3] 90 % of control
